Data: patent US10292981B2, “Oxazoline and isoxazoline derivatives as CRAC modulators” (LUPIN LIMITED, priority 2010, dated 2019)

Columns and labels:
Format in all cases: cell-based
SOCE, Jurkat E6.1 cells = experiment: SOCE inhibition (thapsigargin/calcium influx, FLIPR); details: Homo sapiens, thapsigargin, calcium chloride
Protocol: SOCE inhibition: Jurkat E6.1 cells were seeded at a density of 1-2×10^5 cells per well in calcium-4 dye prepared in calcium free HBSS (Sigma, USA). Test compounds from this invention were added to the cells at different concentrations. This was followed by the addition of thapsigargin (TG), a SERCA inhibitor, to empty the stores of calcium. Calcium chloride was added to the cells after 10-30 min to induce calcium influx and the fluorescence was measured for 10 min using the FLIPR-Tetra detection system. Fluorescence was also measured using a plate reader at 485 nm excitation and 520 nm emission (Synergy2, Biotek, USA) after 30-90 minutes of calcium addition. Fluorescence observed in cells treated with Thapsigargin and calcium chloride solution was considered 100% maximal signal and the reduced fluorescent signal observed in the presence of test compounds was expressed as percent inhibition of the maximal signal. The dose response data was analyzed using 4-parametric sigmoidal dose response (variable slope) curve-fit.

[1] = system: NFAT-Luc reporter gene, HEK 293 cells; experiment: NFAT transcriptional activity (NFAT-Luc reporter); details: Homo sapiens, HEK293, thapsigargin
Protocol: NFAT Transcriptional Activity: HEK 293 cells were stably transfected with a NFAT-Luc reporter gene. 30,000-80,000 cells were seeded per well. Test compounds from this invention were added to the cells at different concentrations. Thapsigargin (TG) was added after 10 mins and the cells were incubated for 4-8 h. NFAT transcriptional activity was measured using BrightGlo reagent (Promega USA). Luminescence observed in cells treated with thapsigargin was considered 100% maximal signal and the reduced fluorescent signal observed in the presence of test compounds was expressed as percent inhibition of the maximal signal. The data was analyzed using 4-parametric sigmoidal dose response (variable slope) curve-fit.

[2] = system: IL-2 secretion, Jurkat T cells; experiment: Inhibition of IL-2 secretion (PHA-stimulated Jurkat T cells, ELISA); details: Homo sapiens; Jurkat T cells stimulated with PHA, 20 to 24 hours
Protocol: The CRAC channel modulatory activity of the compounds were thus evaluated by measuring the secretion of IL-2 by antigen stimulated T-cells in vitro. Alternatively, such activity can also be evaluated by assay methods known to one skilled in the art.
Inhibition of IL-2 secretion: Jurkat T cells were seeded at a density of 0.5 to 1 million cells per well in RPMI medium. Test compounds from this invention were added to the cells at different concentrations. This was followed by the addition of PHA, a T cell mitogen after 10 minutes.
The cells were then incubated for 20 to 24 hours in a CO2 incubator at 37° C. After incubation with the compounds, cells were centrifuged, collected the supernatant and processed for ELISA to quantitate the amount of IL-2 secreted. A commercial ELISA kit (R&D Systems, Inc. Minneapolis, Minn., USA) was used to estimate the IL-2 concentrations. Amount of IL-2 secreted by cells stimulated with PHA was considered as a 100% maximal signal and the decrease in amount of IL-2 secreted by cells treated with the test compounds was expressed as percent inhibition of the maximal signal. The dose response data was analyzed using 4-parametric sigmoidal dose response (variable slope) curve-fit.

COc1ccc(C2=NOC(C)(C)C2=O)cc1-c1ccc(NC(=O)c2c(F)cccc2F)cc1 [Example 15, N-(5′-(5,5-dimethyl-4-oxo-4,5-dihydroisoxazol-3-yl)-2′-methoxy-[1,1′-biphenyl]-4-yl)-2,6-difluorobenzamide]
IC50 (SOCE, Jurkat E6.1 cells): < 1000 nM

Cc1c(C2=NOC(C)(C)C2=O)cccc1-c1ccc(NC(=O)c2c(F)cccc2F)cc1 [Example 29, N-(3′-(5,5-Dimethyl-4-oxo-4,5-dihydroisoxazol-3-yl)-2′-methyl-[1,1′-biphenyl]-4-yl)-2,6-difluorobenzamide]
IC50 [1]: < 500 nM
IC50 [2]: < 100 nM

COc1ccc(-c2nn(C)c(=O)o2)cc1-c1ccc(NC(=O)c2c(F)cccc2Cl)cc1 [Example 41, 2-Chloro-6-fluoro-N-(2′-methoxy-5′-(4-methyl-5-oxo-4,5-dihydro-1,3,4-oxadiazol-2-yl)[1,1′-biphenyl]-4-yl)benzamide]
IC50 (SOCE, Jurkat E6.1 cells): < 1000 nM

Cc1nnsc1C(=O)Nc1ccc(-c2cccc(-c3nn(C)c(=O)o3)c2C)cc1 [Example 50, 4-Methyl-N-(2′-methyl-3′-(4-methyl-5-oxo-4,5-dihydro-1,3,4-oxadiazol-2-yl)-[1,1′-biphenyl]-4-yl)-1,2,3-thiadiazole-5-carboxamide]
IC50 [1]: < 500 nM

C=CCOc1ccc(C2=NOC(C)(C)C2=O)cc1-c1ccc(NC(=O)c2c(F)cccc2F)cc1 [Example 132, N-(2′-(allyloxy)-5′-(5,5-dimethyl-4-oxo-4,5-dihydroisoxazol-3-yl)-[1,1′-biphenyl]-4-yl)-2,6-difluorobenzamide]
IC50 [2]: 100 to 1000 nM

CNc1ccc(C2=NOC(C)(C)C2=O)cc1-c1ccc(NC(=O)c2c(F)cccc2F)cc1 [Example 135, N-(5′-(5,5-Dimethyl-4-oxo-4,5-dihydroisoxazol-3-yl)-2′-(methylamino)-[1,1′-biphenyl]-4-yl)-2,6-difluorobenzamide]
IC50 [1]: < 500 nM
IC50 [2]: < 100 nM
IC50 (SOCE, Jurkat E6.1 cells): < 1000 nM

CN(C)c1ccc(C2=NOC(C)(C)C2=O)cc1-c1ccc(NC(=O)c2c(F)cccc2F)cc1 [Example 136, N-(5′-(5,5-Dimethyl-4-oxo-4,5-dihydroisoxazol-3-yl)-2′-(dimethylamino)-[1,1′-biphenyl]-4-yl)-2,6-difluorobenzamide]
IC50 [2]: 100 to 1000 nM

Cc1ccc(C2=NOC(CO)(CCO)C2)cc1-c1ccc(NC(=O)c2c(F)cccc2F)cc1 (centres unmarked) [Example 145, 2,6-Difluoro-N-(5′-(5-(2-hydroxyethyl)-5-(hydroxymethyl)-4,5-dihydroisoxazol-3-yl)-2′-methyl-[1,1′-biphenyl]-4-yl)benzamide]
IC50 [2]: > 1000 nM

CCc1ccc(C2=NOC(C)(C)C2=O)cc1-c1ccc(C(=O)Nc2c(F)cccc2F)s1 [Example 157, N-(2,6-Difluorophenyl)-5-(5-(5,5-dimethyl-4-oxo-4,5-dihydroisoxazol-3-yl)-2-ethyl-phenyl)thiophene-2-carboxamide]
IC50 [2]: < 100 nM

CCc1ccc(C2=NOC(C)(C)C2=O)cc1-c1ccc(C(=O)Nc2ccncc2C)s1 [Example 158, 5-(5-(5,5-Dimethyl-4-oxo-4,5-dihydroisoxazol-3-yl)-2-ethylphenyl)-N-(3-methylpyridin-4-yl)thiophene-2-carboxamide]
IC50 [2]: < 100 nM

COc1ccc(C2=NOC(C)(C)C2=O)cc1-c1ccc(C(=O)Nc2c(F)cccc2F)s1 [Example 160, N-(2,6-Difluorophenyl)-5-(5-(5,5-dimethyl-4-oxo-4,5-dihydroisoxazol-3-yl)-2-methoxy-phenyl)thiophene-2-carboxamide]
IC50 [2]: < 100 nM
IC50 (SOCE, Jurkat E6.1 cells): < 1000 nM

CCc1ccc(-c2nn(C)c(=O)o2)cc1-c1ccc(C(=O)Nc2c(F)cccc2F)s1 [Example 171, N-(2,6-Difluorophenyl)-5-(2-ethyl-5-(4-methyl-5-oxo-4,5-dihydro-1,3,4-oxadiazol-2-yl)phenyl)thiophene-2-carboxamide]
IC50 [2]: < 100 nM

Cn1nc(-c2ccc(OC(F)F)c(-c3ccc(C(=O)Nc4c(F)cccc4F)s3)c2)oc1=O [Example 173, 5-(2-(Difluoromethoxy)-5-(4-methyl-5-oxo-4,5-dihydro-1,3,4-oxadiazol-2-yl)phenyl)-N-(2,6-difluorophenyl) thiophene-2-carboxamide]
IC50 [2]: < 100 nM

Cc1c(-c2nn(C)c(=O)o2)cccc1-c1ccc(C(=O)Nc2c(F)cccc2F)s1 [Example 176, N-(2,6-Difluorophenyl)-5-(2-methyl-3-(4-methyl-5-oxo-4,5-dihydro-1,3,4-oxadiazol-2-yl)phenyl)thiophene-2-carboxamide]
IC50 [1]: < 500 nM
IC50 [2]: < 100 nM
IC50 (SOCE, Jurkat E6.1 cells): < 1000 nM
